This is an account of results in article PMC6273491, “Two New Oleanane-Type Saponins with Anti-Proliferative Activity from Camellia oleifera Abel. Seed Cake” (Molecules, 2016).

Holding throughout (assay type): cell-based
For assay [1], the system named is human hepatocellular carcinoma cells BEL-7402. Briefly: MTT anti-proliferative assay, BEL-7402. The conditions noted are these: 72 h treatment, read-out: Cell Lines IC50 BEL-7402. The procedure:
(§1) The isolated Compounds 1, 2 and total seed cake saponins (C. oleifera) were tested against five human tumor cell lines (human hepatocellular carcinoma cells BEL-7402, human gastric carcinoma cells BGC-823, human breast cancer cells MCF-7, human promyelocytic leukemia cells HL-60 and human oral epidermoid carcinoma cells KB) using the MTT in vitro assay. Taxol, an anticancer agent, was used as the positive control.
(§2) The procedure for the anti-proliferative activity assay was performed according to the MTT reduction method using the human tumor cell lines BEL-7402, BGC-823, MCF-7, HL-60 and KB (Nanjing KeyGEN BioTECH Co., LTD, Jiangsu, China). In brief, the human tumor cell lines in culture medium (100 μL) were placed in a cell of a 96-well plate at a concentration of 4 × 10^3 cells/mL and incubated at 37 °C in 5% CO2 for 24 h. After 24 h, an additional 100 μL of complete medium with either: no additions (negative control), 0.1% DMSO (solvent control), 10 μg/mL Taxol (positive control), or different concentrations (0.391, 0.781, 1.562, 3.125, 6.25, 12.5, 25 and 50 μM) of 1 or 2 or total saponins (0.391, 0.781, 1.562, 3.125, 6.25, 12.5, 25 and 50 μg/mL). The treated cells were incubated as above for 72 h. […] The optical density (OD) of each well was measured at 490 nm using a Tunable Microplate Reader (EL-x800, BioTek Instruments, Winooski, VT, USA). […]
Background: Tetrazolium dyes change colour on reduction, which living cells bring about.

The test system of assay [2] is human gastric carcinoma cells BGC-823. Briefly: MTT anti-proliferative assay, BGC-823. The conditions noted are these: 72 h treatment, read-out: Cell Lines IC50 BGC-823. The procedure:
as §1, §2

Assay [3] has as its system human breast cancer cells MCF-7. In words: MTT anti-proliferative assay, MCF-7. The conditions noted are these: MCF7, 72 h treatment, read-out: Cell Lines IC50 MCF-7. The procedure: as §1, §2
In assay [4] the test system is human promyelocytic leukemia cells HL-60. In words: MTT anti-proliferative assay, HL-60. The conditions noted are these: 72 h treatment, read-out: Cell Lines IC50 HL-60. The procedure: as §1, §2
Assay [5] has as its system human oral epidermoid carcinoma cells KB. Briefly: MTT anti-proliferative assay, KB. The conditions noted are these: 72 h treatment, read-out: Cell Lines IC50 KB. The procedure: as §1, §2
Assay [6] relates to five human tumor cell lines (BEL-7402, BGC-823, MCF-7, HL-60 and KB). In words: MTT anti-proliferative assay, panel of five human tumor cell lines. The conditions noted are these: 72 h treatment, range across BEL-7402, BGC-823, MCF-7, HL-60, KB, read-out: anti-proliferative activity IC50 values, range over five cell lines. The procedure:
as §1, §2

For orientation: IC50 means the concentration at which inhibition is half-maximal. For the molecule `CC=C(C)C(=O)OC1CC(C)(C)CC2C3=CCC4C5(C)CCC(OC6OC(C(=O)OC)C(O)C(OC7OC(CO)C(O)C(O)C7OC7OC(CO)C(O)C(O)C7O)C6OC6OC(CO)C(O)C(O)C6O)C(C)(C=O)C5CCC4(C)C3(C)CC(O)C12CO` [Compound 1, 16α-hydroxy-22α-O-angeloyl-23α-aldehyde-28-dihydroxymethylene-olean-12-ene-3β-O-[β-D-galacto-pyranosyl-(1→2)]-[β-D-glucopyranosyl-(1→2)-β-D-galactopyranosy-(1→3)]-β-D-glucopyranosid-uronic acid methyl ester], the IC50 in assay [1] is 10.4 µM; in assay [2], 11.2 µM; in assay [3], 15.1 µM; in assay [4] it was 6.49 µM; in assay [5] it was 12.3 µM; in assay [6] it was 6.5 to 15.1 µM.

In the case of `CC=C(C)C(=O)OC1CC(C)(C)CC2C3=CCC4C5(C)CCC(OC6OC(C(=O)OC)C(O)C(OC7OC(CO)C(O)C(O)C7O)C6OC6OC(CO)C(O)C(O)C6O)C(C)(C=O)C5CCC4(C)C3(C)CC(O)C12CO` [Compound 2, 16α-hydroxy-22α-O-angeloyl-23α-aldehyde-28-dihydroxymethylene-olean-12-ene-3β-O-[β-D-galactopyranosyl-(1→2)]-[β-D-galactopyranosyl-(1→3)]-β-D-glucopyranosiduronic acid methyl ester], the IC50 was 4.22 µM in assay [1]; 5.5 µM in assay [2]; 3.92 µM in assay [3]; 1.8 µM in assay [4]; 3.47 µM in assay [5]; 1.8 to 5.5 µM in assay [6].
